From ChEMBL document CHEMBL1144349, “A shape-based 3-D scaffold hopping method and its application to a bacterial protein-protein interaction” (J Med Chem, 2005) come the findings set out here.

A word on the Kd: it is the free concentration of one partner at which half of the binding sites on the other are occupied at equilibrium, for simple one-to-one binding. Lower therefore signals higher affinity.

The nature of the assay: Affinity for bacterial ZipA-FtsZ protein-protein interaction. The arrangement: species or system Escherichia coli.

Compound `CC(=O)Nc1cccc(-c2ccc3nnc(-c4ccccc4)n3n2)c1` displayed a Kd of 73.9 µM.
For `CC(=O)N(C)c1cccc(-c2ccc3nnc(-c4cccnc4)n3n2)c1`, the affinity, expressed as Kd, was 85.1 µM.
